Source: patent US11174232B2, “Substituted heterocyclyl derivatives as CDK inhibitors” (Aurigene Discovery Technologies Limited, priority 2015, dated 2021)

Molecular target: CDK7/CycH/MNAT1 (Homo sapiens (Human), UniProt P50613)
Assay: Biochemical Assay for CDK7 (TR-FRET kinase assay)
Conditions: 60 min pre-incubation with kinase, 1 mM ATP; for inhibition at 10 µM: 10 μM compound
Method: Biochemical Assay for CDK7:
The ability of compounds to inhibit CDK7 kinase activity was tested in a TR-FRET assay using 5 nM of CDK7/CycH/MNAT1 obtained from Invitrogen, USA. Test compounds were pre-incubated with the kinase at room temperature for 60 min. After the incubation, substrate mix [100 nM Ultra-light MBP (Perkin Elmer, USA) and 1 mM ATP (Sigma)] was added. The above reaction was stopped by the addition of 40 mM EDTA after 60 minutes of kinase reaction. 1 nM Eu-labelled antiphospho-MBP antibody [Perkin Elmer, USA] was added, mixed well and the fluorescence emission at 615 nm and 665 nm [excitation at 340 nm] was measured. The final DMSO concentration in the assay was 1%. For IC50 determination, appropriate concentrations were made by ⅓^rd serial dilutions of 10 mM DMSO stock solution of test compound. All the fluorescence measurements were made in a Victor 3 Multilabel Counter [Perkin Elmer, USA]. The IC50 was determined by fitting the dose response data to sigmoidal curve fitting equation using GraphPad Prism software V5. To identify compounds that inhibit CDK7 irreversibly, time depended inhibition studies were carried by pre-incubating compound with the enzyme at three time points (20, 60 and 180 min) and carrying out assay as described above.
The compounds were screened by the above mentioned assay procedure.

Sequence of CDK7/CycH/MNAT1 (P50613 whole entry): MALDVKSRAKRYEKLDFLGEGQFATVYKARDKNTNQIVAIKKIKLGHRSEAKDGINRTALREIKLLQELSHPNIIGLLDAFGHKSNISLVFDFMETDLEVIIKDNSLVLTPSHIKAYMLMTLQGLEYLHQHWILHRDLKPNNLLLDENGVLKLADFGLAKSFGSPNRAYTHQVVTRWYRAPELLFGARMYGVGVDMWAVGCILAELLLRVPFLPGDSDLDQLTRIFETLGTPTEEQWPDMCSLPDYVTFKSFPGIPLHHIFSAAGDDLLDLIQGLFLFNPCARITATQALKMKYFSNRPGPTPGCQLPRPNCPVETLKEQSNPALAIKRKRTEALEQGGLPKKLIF
Sequence of CDK7/CycH/MNAT1 (P51946 whole entry partner): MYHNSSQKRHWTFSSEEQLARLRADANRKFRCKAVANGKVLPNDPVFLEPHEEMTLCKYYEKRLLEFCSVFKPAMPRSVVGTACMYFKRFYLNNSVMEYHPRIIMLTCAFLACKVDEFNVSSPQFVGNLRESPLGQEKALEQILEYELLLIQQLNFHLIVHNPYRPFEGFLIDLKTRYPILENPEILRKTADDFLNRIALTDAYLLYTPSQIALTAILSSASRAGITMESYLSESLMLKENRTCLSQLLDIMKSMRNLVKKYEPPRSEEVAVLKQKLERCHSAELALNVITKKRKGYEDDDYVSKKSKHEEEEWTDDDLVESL
Sequence of CDK7/CycH/MNAT1 (P51948 whole entry partner): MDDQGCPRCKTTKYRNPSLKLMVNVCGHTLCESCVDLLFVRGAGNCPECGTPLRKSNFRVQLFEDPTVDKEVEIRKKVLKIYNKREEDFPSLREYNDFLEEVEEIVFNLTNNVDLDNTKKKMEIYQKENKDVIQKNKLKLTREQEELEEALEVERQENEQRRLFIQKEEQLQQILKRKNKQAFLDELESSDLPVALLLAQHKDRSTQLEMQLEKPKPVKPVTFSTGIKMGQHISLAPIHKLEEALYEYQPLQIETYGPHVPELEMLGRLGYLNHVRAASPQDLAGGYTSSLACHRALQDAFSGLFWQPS

| SMILES | inhibition at 10 µM | IC50 |
| --- | --- | --- |
| C=CC(=O)Nc1ccc(-c2cccc(C(C)C(=O)Nc3cc(C4CC4)[nH]n3)c2)cc1 (stereo not shown) [Compound 18, N-(3′-(1-((5-cyclopropyl-1H-pyrazol-3-yl)amino)-1-oxopropan-2-yl)-[1,1′-biphenyl]-4-yl)acrylamide] | 95% | > 100 nM |
| C=CC(=O)Nc1ccc(-c2cccc(C(C)C(=O)Nc3cc(C4CC4)[nH]n3)c2)cc1F (stereo not shown) [Compound 19, N-(3′-(1-((5-cyclopropyl-1H-pyrazol-3-yl)amino)-1-oxopropan-2-yl)-3-fluoro-[1,1′-biphenyl]-4-yl)acrylamide] | 97% | 25 to 100 nM |
| C=CC(=O)Nc1ccc(-c2cccc(C(C)C(=O)Nc3cc(C4CC4)[nH]n3)c2)cn1 (stereo not shown) [Compound 20, N-(5-(3-(1-((5-cyclopropyl-1H-pyrazol-3-yl)amino)-1-oxopropan-2-yl)phenyl)pyridin-2-yl)acrylamide] | 100% | < 25 nM |
| C=CC(=O)Nc1ccc(-c2cc(C(C)C(=O)Nc3cc(C4CC4)[nH]n3)ccc2F)cc1F (stereo not shown) [Compound 23, N-(5′-(1-((5-cyclopropyl-1H-pyrazol-3-yl)amino)-1-oxopropan-2-yl)-2′,3-difluoro-[1,1′-biphenyl]-4-yl)acrylamide] | 98% | 25 to 100 nM |
| C=CC(=O)Nc1ccc(-c2cccc(C(C)C(=O)Nc3cc(C4CC4)[nH]n3)c2)nc1 (stereo not shown) [Compound 24, N-(6-(3-(1-((5-cyclopropyl-1H-pyrazol-3-yl)amino)-1-oxopropan-2-yl)phenyl)pyridin-3-yl)acrylamide] | 96% | 25 to 100 nM |
| C=CC(=O)Nc1ccc(-c2cccc(C(C(=O)Nc3cc(C4CC4)[nH]n3)C(C)C)c2)cc1F (stereo not shown) [Compound 25, 2-(4′-acrylamido-3′-fluoro-[1,1′-biphenyl]-3-yl)-N-(5-cyclopropyl-1H-pyrazol-3-yl)-3-methylbutanamide] | 97% | 25 to 100 nM |
| C=CC(=O)Nc1ccc(-c2cccc(C(CC)C(=O)Nc3cc(C4CC4)[nH]n3)c2)nc1 (stereo not shown) [Compound 26, 2-(3-(5-acrylamidopyridin-2-yl)phenyl)-N-(5-cyclopropyl-1H-pyrazol-3-yl)butanamide] | 96% | < 25 nM |
| C=CC(=O)Nc1ccc(-c2cccc(C(CC)C(=O)Nc3cc(C4CC4)[nH]n3)c2)cc1F (stereo not shown) [Compound 27, 2-(4′-acrylamido-3′-fluoro-[1,1′-biphenyl]-3-yl)-N-(5-cyclopropyl-1H-pyrazol-3-yl)butanamide] | 98% | < 25 nM |
| CC(C(=O)Nc1cc(C2CCCC2)[nH]n1)c1cccc(-c2ccc(NC(=O)/C=C/CN(C)C)c(F)c2)c1 (stereo not shown) [Compound 28, (E)-N-(3′-(1-((5-cyclopentyl-1H-pyrazol-3-yl)amino)-1-oxopropan-2-yl)-3-fluoro-[1,1′-biphenyl]-4-yl)-4-(dimethylamino)but-2-enamide] | 96% | 25 to 100 nM |
| CC(C(=O)Nc1cc(C2CC2)[nH]n1)c1cccc(-c2ccc3c(c2)CCN3C(=O)/C=C/CN(C)C)c1 (stereo not shown) [Compound 29, (E)-N-(5-cyclopropyl-1H-pyrazol-3-yl)-2-(3-(1-(4-(dimethylamino)but-2-enoyl)indolin-5-yl)phenyl)propanamide] | 97% | < 25 nM |
| C=CC(=O)Nc1ccc(-c2cccc(C(C)C(=O)Nc3n[nH]c(C4CC4)c3C)c2)cc1 (stereo not shown) [Compound 30, N-(3′-(1-((5-cyclopropyl-4-methyl-1H-pyrazol-3-yl)amino)-1-oxopropan-2-yl)-[1,1′-biphenyl]-4-yl)acrylamide] | 28% | > 100 nM |
| CCC(C(=O)Nc1cc(C2CC2)[nH]n1)c1cccc(-c2ccc(NC(=O)/C=C/CN(C)C)c(F)c2)c1 (stereo not shown) [Compound 31, (E)-N-(3′-(1-((5-cyclopropyl-1H-pyrazol-3-yl)amino)-1-oxobutan-2-yl)-3-fluoro-[1,1′-biphenyl]-4-yl)-4-(dimethylamino)but-2-enamide] | 100% | < 25 nM |
| CCN(CC)C/C=C/C(=O)Nc1ccc(-c2cccc(C(C)C(=O)Nc3cc(C4CC4)[nH]n3)c2)cc1F (stereo not shown) [Compound 32, (E)-N-(3′-(1-((5-cyclopropyl-1H-pyrazol-3-yl)amino)-1-oxopropan-2-yl)-3-fluoro-[1,1′-biphenyl]-4-yl)-4-(diethylamino)but-2-enamide] | 100% | < 25 nM |
| CC(C(=O)Nc1cc(C2CC2)[nH]n1)c1cccc(-c2ccc(NC(=O)/C=C/CN3CCCC3)c(F)c2)c1 (stereo not shown) [Compound 33, (E)-N-(3′-(1-((5-cyclopropyl-1H-pyrazol-3-yl)amino)-1-oxopropan-2-yl)-3-fluoro-[1,1′-biphenyl]-4-yl)-4-(pyrrolidin-1-yl)but-2-enamide] | 97% | 25 to 100 nM |
| CC(C(=O)Nc1cc(C2CC2)[nH]n1)c1cccc(-c2ccc(NC(=O)/C=C/CN3CCOCC3)c(F)c2)c1 (stereo not shown) [Compound 34, (E)-N-(3′-(1-((5-cyclopropyl-1H-pyrazol-3-yl)amino)-1-oxopropan-2-yl)-3-fluoro-[1,1′-biphenyl]-4-yl)-4-morpholinobut-2-enamide] | 88% | > 100 nM |
| CC(C(=O)Nc1cc(C2CC2)[nH]n1)c1cccc(-c2ccc(NC(=O)/C=C/CN3CCOCC3)cn2)c1 (stereo not shown) [Compound 35, (E)-N-(6-(3-(1-((5-cyclopropyl-1H-pyrazol-3-yl)amino)-1-oxopropan-2-yl)phenyl)pyridin-3-yl)-4-morpholinobut-2-enamide] | 86% | > 100 nM |
| CC(C)C(C(=O)Nc1cc(C2CC2)[nH]n1)c1cccc(-c2ccc(NC(=O)/C=C/CN(C)C)cn2)c1 (stereo not shown) [Compound 36, (E)-N-(6-(3-(1-((5-cyclopropyl-1H-pyrazol-3-yl)amino)-3-methyl-1-oxobutan-2-yl)phenyl)pyridin-3-yl)-4-(dimethylamino)but-2-enamide] | 98% | < 25 nM |
| CC(C(=O)Nc1cc(C2CC2)[nH]n1)c1cccc(-c2ccc(NC/C=C/C(=O)N(C)C)cn2)c1 (stereo not shown) [Compound 37, (E)-4-((6-(3-(1-((5-cyclopropyl-1H-pyrazol-3-yl)amino)-1-oxopropan-2-yl)phenyl)pyridin-3-yl)amino)-N,N-dimethylbut-2-enamide] | 67% | > 100 nM |
| CC(C(=O)Nc1cc(C2CC2)[nH]n1)c1cccc(-c2ccc(NC(=O)/C=C/CN(C)C)c(F)n2)c1 (stereo not shown) [Compound 38, (E)-N-(6-(3-(1-((5-cyclopropyl-1H-pyrazol-3-yl)amino)-1-oxopropan-2-yl)phenyl)-2-fluoropyridin-3-yl)-4-(dimethylamino)but-2-enamide] | 94% | > 100 nM |
| CC(C(=O)Nc1cc(C2CC2)[nH]n1)c1cccc(-c2ccc(NC(=O)/C=C/CN3CCCCC3)cn2)c1 (stereo not shown) [Compound 39, (E)-N-(6-(3-(1-((5-cyclopropyl-1H-pyrazol-3-yl)amino)-1-oxopropan-2-yl)phenyl)pyridin-3-yl)-4-(piperidin-1-yl)but-2-enamide] | 84% | > 100 nM |
| CC(C(=O)Nc1cc(C2CC2)[nH]n1)c1cccc(-c2ccc(NC(=O)/C=C/CN3CCCCC3)nc2)c1 (stereo not shown) [Compound 40, (E)-N-(5-(3-(1-((5-cyclopropyl-1H-pyrazol-3-yl)amino)-1-oxopropan-2-yl)phenyl)pyridin-2-yl)-4-(piperidin-1-yl)but-2-enamide] | 100% | < 25 nM |
| COC/C=C/C(=O)Nc1ccc(-c2cccc(C(C)C(=O)Nc3cc(C4CC4)[nH]n3)c2)cn1 (stereo not shown) [Compound 41, (E)-N-(5-(3-(1-((5-cyclopropyl-1H-pyrazol-3-yl)amino)-1-oxopropan-2-yl)phenyl)pyridin-2-yl)-4-methoxybut-2-enamide] | 90% | > 100 nM |
| CC(C(=O)Nc1cc(C2CC2)[nH]n1)c1cccc(-c2ccc(NC(=O)/C=C/CN(C)C)nc2)c1 (stereo not shown) [Compound 42, (E)-N-(5-(3-(1-((5-cyclopropyl-1H-pyrazol-3-yl)amino)-1-oxopropan-2-yl)phenyl)pyridin-2-yl)-4-(dimethylamino)but-2-enamide] | 98% | < 25 nM |
| CC(C)C(C(=O)Nc1cc(C2CC2)[nH]n1)c1cccc(-c2ccc(NC(=O)/C=C/CN(C)C)c(F)c2)c1 (stereo not shown) [Compound 43, (E)-N-(3′-(1-((5-cyclopropyl-1H-pyrazol-3-yl)amino)-3-methyl-1-oxobutan-2-yl)-3-fluoro-[1,1′-biphenyl]-4-yl)-4-(dimethylamino)but-2-enamide] | 99% | < 25 nM |
| CC(C)C(C(=O)Nc1cc(C2CC2)[nH]n1)c1cccc(-c2ccc(NC(=O)/C=C/CN3CCOCC3)nc2)c1 (stereo not shown) [Compound 44, (E)-N-(5-(3-(1-((5-cyclopropyl-1H-pyrazol-3-yl)amino)-3-methyl-1-oxobutan-2-yl)phenyl)pyridin-2-yl)-4-morpholinobut-2-enamide] | 99% | < 25 nM |
| CC(C(=O)Nc1cc(C2CC2)[nH]n1)c1cccc(-c2ccc(NC(=O)/C=C/CN3CCC(F)C3)nc2)c1 (stereo not shown) [Compound 45, (E)-N-(5-(3-(1-((5-cyclopropyl-1H-pyrazol-3-yl)amino)-1-oxopropan-2-yl)phenyl)pyridin-2-yl)-4-(3-fluoropyrrolidin-1-yl)but-2-enamide] | 89% | < 25 nM |
